Like-named read-outs stand apart in the source and are kept apart here.
Columns and labels:
[1] = tested on: native NMDA receptors of rat CA1 hippocampal pyramidal neurons; experiment: Whole-cell patch-clamp of NMDA-induced currents in isolated CA1 pyramidal neurons; assay type: cell-based; settings: for washout of mixture with Mg2+ compared with compound alone: 10 mM Mg2+; for washout τ, compound alone (representative recording) / washout τ, compound + Mg (representative recording): Figure 5; for washout τ, compound + Mg (representative recording): with 10 mM Mg2+; for washout time constant τ, compound alone: proguanil 30 µM, magnesium 10 mM; for inhibition of NMDA receptor steady-state currents (in words): 10 µM; for agonist dependence of action: NMDA 30 µM vs 1 mM; for agonist dependence of action / voltage dependence of inhibition (in words): cycloguanil 5 µM, proguanil 10 µM, phenformin 20 µM; for Kd: fit of voltage dependence (+30 to −120 mV) with Equation (2); for δ (fraction of membrane electric field crossed): fit with Equation (2), * = fixed value; for voltage dependence of inhibition (in words): holding potential +30 to −120 mV; for competitive or not competitive inhibition: inhibition compared at 30 µM and 1000 µM NMDA; for % of Inhibition (10 µM) −80 mV: steady-state current, 10 µM compound; for % of trapping in double-pulse protocol / tail currents on coapplication with agonist: cycloguanil 100 µM; for Hill Coeff.: concentration–inhibition curve; for tail currents on coapplication with agonist: proguanil 100 µM, phenformin 300 µM
Method: NMDA receptors of these neurons consist mainly of GluN1, GluN2A and/or GluN2B subunits. We initially checked whether 10 µM concentrations of biguanide compounds metformin, phenformin, moroxydine, cycloguanil and proguanil would inhibit these steady-state currents. […] Hill coefficients were 1.0 ± 0.1, 1.1 ± 0.2 and 1.1 ± 0.1 for cycloguanil, proguanil and phenformin, respectively.
All experiments were conducted with approval by the Animal Care and Use Committee of the Sechenov Institute of Evolutionary Physiology and Biochemistry of the Russian Academy of Sciences (protocol 1-13/2023, 26 January 2023). Outbred male Wistar rats (13–18 days old, weighing 25–35 g) were sourced from the IEPHB facility. Maximum efforts were made to minimize the number of animals used and to reduce discomfort.
The rats were decapitated after sevoflurane anaesthetization. The brains were rapidly removed and cooled to 2–4 °C. Transverse hippocampal slices were prepared using a vibratome (Campden Instruments, Loughborough, UK), and single neurons were freed from slices by vibrodissociation. All experiments were performed at room temperature.
The whole-cell patch clamp technique was used to record membrane currents in response to applications of the agonists. Series resistance (<20 MΩ) was compensated by 70–80% and monitored during experiments. Currents were recorded using an EPC-8 amplifier (HEKA Electronics, Lambrecht, Germany), filtered at 5 kHz, sampled and stored on a personal computer. Drugs were applied using an RSC-200 (BioLogic, Seyssinet-Pariset, France) perfusion system under computer control. The extracellular solution contained (in mM) NaCl 143, KCl 5, CaCl2 2.5, D-glucose 18, and HEPES 10 (pH adjusted to 7.4 with […]). The pipette solution contained (in mM) CsF 100, CsCl 40, NaCl 5, CaCl2 0.5, EGTA 5, and HEPES 10 (pH adjusted to 7.2 with CsOH). Proguanil (HY-B0806), cycloguanil (HY-12784), phenformin hydrochloride (HY-16397A), metformin hydrochloride (HY-17471A), moroxydine hydrochloride (HY-B0420A) and ifenprodil tartrate (HY-12882A) were obtained from MedChemExpress (Monmouth Junction, NJ, USA). Other reagents were purchased from MedChemExpress (Monmouth Junction, NJ, USA), Sigma (St. Louis, MO, USA) or Tocris Bioscience (Bristol, UK).
Experiments were performed on pyramidal neurons from the CA1 area of the hippocampus. Unless otherwise specified, NMDA receptors were activated with 100 µM NMDA and 10 µM glycine. The percentage of steady-state current blockage by various drug concentrations was measured at holding voltages of either −80 or −30 mV. Transient processes lasting more than 20 ms were modeled using single or double exponential functions. In the case of double exponential fitting, the weighted time constant was employed.
The voltage dependence of the compounds’ action was analyzed using the classical Woodhull model with the voltage-independent component addition. According to the Woodhull model of an impermeable blocker, the voltage dependence of steady-state blockade is defined by Equation (1):(1) B=100/(1+Kb/C×exp〖Fzδ/RTV〗) where V is voltage; B is the level of the block (%); C is the concentration of the drug; z is the molecular charge; and R, F and T have their standard meanings. Kb is the affinity of a drug for the channel, and δ is the electrical depth of the binding site. The δ value reflects the fraction of membrane electric field that the charged blocking molecule crosses on its pathway between the external media and the binding site in the channel.
Our experimental data were not well fitted by the abovementioned equation, presumably because of the presence of a voltage-independent component. Thus, we used an Equation (2), taking it into account, assuming that the binding to the deep and superficial site is independent:(2) B=100−100/(1+C/(Kvd×exp〖Fzδ/RTV〗)+C/Kvi+(C×C)/(Kvd×exp〖Fzδ/RTV〗×Kvi)) […]

[2] = target: NMDA receptors; settings: −30 mV in the presence of physiological magnesium concentration; read-out: IC50 of memantine; cited from earlier work
[3] = tested on: NMDA receptors; set-up: method as in PMID 12009768; settings: acute phenformin treatment, cited from earlier work
[4] = −80 mV, Cyclog 10 µM, Ifen 10 µM
[5] = −80 mV, Mg 10 mM, Prog 30 µM, Phen 50 µM
[6] = read-out: Kvd (affinity for the deep site in the channel pore)
[7] = read-out: Kvi (affinity for the superficial, voltage-independent site)
[8] = 100 µM NMDA + 10 µM glycine, −80 mV, no Mg2+
[9] = −30 mV holding voltage, 1 mM Mg2+, read-out: IC50 at −30 mV in the presence of 1 mM Mg2+
[10] = −30 mV holding voltage, no Mg2+, read-out: IC50 at −30 mV in the absence of Mg2+
[11] = −80 mV holding voltage, no Mg2+, 100 µM NMDA + 10 µM glycine, read-out: IC50, µM −80 mV

With `CC(C(O)c1ccc(O)cc1)N1CCC(Cc2ccccc2)CC1` (stereo not drawn) [ifenprodil] the “washout of mixture with Mg2+ compared with compound alone” value (from here on “washout … compared with compound alone”) ([1]; −80 mV) was “does not affect”, the “washout τ, compound alone (representative recording)” value (“washout τ, compound alone” for short) [1, 4] was 28000 ms and the “washout τ, compound + Mg (representative recording)” value (“washout τ, compound + Mg” below) ([1]; −80 mV) was 28000 ms.
With `[Mg+2]` [magnesium] the “washout time constant τ, compound alone” value ([1]; −80 mV, mean ± SD) was 30 ± 16 ms and the “washout τ, compound alone” value [1, 5] was 30 ms.
For `[H]/N=C(\N/C(=N/[H])Nc1ccc(Cl)cc1)NC(C)C` [Proguanil, proguanil], the “mechanism of NMDA receptor inhibition” value [1] was “allosteric inhibitors”, the “inhibition of NMDA receptor steady-state currents (in words)” value ([1]; −80 mV) was “significant inhibition” and the “agonist dependence of action” value [1] was “more active in conditions of higher agonist concentration”. For the same compound, the Kd [1, 6] was > 500 µM, the Kd [1, 7] was 14 ± 1 µM and the “δ (fraction of membrane electric field crossed)” value [1] was 0.7 *. For the same compound, the “voltage dependence of inhibition (in words)” value [1] was “mostly voltage-independently with a small voltage-dependent component”, the “competitive or not competitive inhibition” value [1] was “not competitive” and the “% of Inhibition (10 µM) −80 mV” value [1, 8] was 51 ± 6 (n = 5) %. For the same compound, the “effect of 1 mM Mg2+ on activity at −30 mV” value (from here on “effect of 1 mM Mg2+”) ([1]; −30 mV holding voltage) was “not affected”, the IC50 [1, 9] was 17 ± 3 µM and the IC50 [1, 10] was 13 ± 3 µM. The “activity lower than that of memantine (fold)” value ([1]; −30 mV, 1 mM Mg2+, compared with memantine IC50 of ref 40) was “approximately three-fold”, the “overshoots on washout in the presence of agonists” value (“overshoots on washout” below) ([1]; −80 mV) was “did not demonstrate overshoots” and the IC50 [1, 11] was 9 ± 2.2 µM. For the same compound, the “% of trapping in double-pulse protocol” value ([1]; −80 mV holding voltage) was < 5%, the “washout … compared with compound alone” value ([1]; −80 mV) was “significantly faster” and the “Hill Coeff.” value ([1]; −80 mV) was 1.1 ± 0.2. The “washout time constant τ, mixture with Mg2+” value ([1]; −80 mV, mean ± SD, proguanil 30 µM + 10 mM Mg2+) was 76 ± 32 ms, the “washout time constant τ, compound alone” value ([1]; −80 mV, mean ± SD) was 470 ± 120 ms and the “washout τ, compound alone” value [1, 5] was 550 ms. The “washout τ, compound + Mg” value ([1]; −80 mV) was 75 ms and the “tail currents on coapplication with agonist” value (“tail currents on coapplication” for short) ([1]; −80 mV) was “tail current absence”.
With `CN(C)C(=N)N=C(N)N` [Metformin, metformin] the “inhibition of NMDA receptor steady-state currents (in words)” value ([1]; −80 mV) was “practically ineffective” and the “% of Inhibition (10 µM) −80 mV” value [1, 8] was 6 ± 5 (n = 4) %.
In the case of `CC12CC3CC(C)(C1)CC(N)(C3)C2` [memantine], the IC50 [2] is given as 6.4 ± 0.5 µM.
For `[H]/N=C(/N)N/C(=N/[H])NCCc1ccccc1` [Phenformin, phenformin], the “mechanism of NMDA receptor inhibition” value [1] was “allosteric inhibitors”, the “inhibition of NMDA receptor steady-state currents (in words)” value ([1]; −80 mV) was “significant inhibition” and the “agonist dependence of action” value [1] was “more active in conditions of higher agonist concentration”. The Kd [1, 6] was > 500 µM, the Kd [1, 7] was 22 ± 2 µM and the “δ (fraction of membrane electric field crossed)” value [1] was 0.7 *. For the same compound, the “voltage dependence of inhibition (in words)” value [1] was “mostly voltage-independently with a small voltage-dependent component”, the “competitive or not competitive inhibition” value [1] was “not competitive” and the “% of Inhibition (10 µM) −80 mV” value [1, 8] was 44 ± 2 (n = 5) %. For the same compound, the “effect of 1 mM Mg2+” value ([1]; −30 mV holding voltage) was “not affected”, the IC50 [1, 9] was 41 ± 6 µM and the IC50 [1, 10] was 36 ± 5 µM. For the same compound, the “overshoots on washout” value ([1]; −80 mV) was “did not demonstrate overshoots”, the IC50 [1, 11] was 13 ± 1 µM and the “% of trapping in double-pulse protocol” value ([1]; −80 mV holding voltage) was < 5%. For the same compound, the “washout … compared with compound alone” value ([1]; −80 mV) was “significantly faster”, the “Hill Coeff.” value ([1]; −80 mV) was 1.1 ± 0.1 and the “washout τ, compound alone” value [1, 5] was 180 ms. For the same compound, the “washout τ, compound + Mg” value ([1]; −80 mV) was 50 ms, the “tail currents on coapplication” value ([1]; −80 mV) was “tail current absence” and the “effect on NMDA-induced whole-cell current” value ([3]; 1 µM) was “did not affect”. The “effect on calcium responses to NMDA” value [3] was “did not alter”.
For `CC1(C)N=C(N)N=C(N)N1c1ccc(Cl)cc1` [Cycloguanil, cycloguanil], the “mechanism of NMDA receptor inhibition” value [1] was “voltage-dependent trapping channel blocker”, the “inhibition of NMDA receptor steady-state currents (in words)” value ([1]; −80 mV) was “significant inhibition” and the “agonist dependence of action” value [1] was “agonist-independent”. The Kd [1, 6] was 55 ± 11 µM, the Kd [1, 7] was > 500 µM and the “δ (fraction of membrane electric field crossed)” value [1] was 0.7 ± 0.1. For the same compound, the “voltage dependence of inhibition (in words)” value [1] was “clearly voltage-dependent”, the “competitive or not competitive inhibition” value [1] was “not competitive” and the “% of Inhibition (10 µM) −80 mV” value [1, 8] was 76 ± 5 (n = 4) %. The “effect of 1 mM Mg2+” value ([1]; −30 mV holding voltage) was “attenuated”, the IC50 [1, 9] was 34 ± 10 µM and the IC50 [1, 10] was 20 ± 5 µM. For the same compound, the “overshoots on washout” value ([1]; −80 mV) was “did not demonstrate overshoots”, the IC50 [1, 11] was 3.4 ± 0.6 µM and the “% of trapping in double-pulse protocol” value ([1]; −80 mV holding voltage) was 68 ± 11%. For the same compound, the “washout … compared with compound alone” value ([1]; −80 mV) was “significantly faster”, the “Hill Coeff.” value ([1]; −80 mV) was 1.0 ± 0.1 and the “washout τ, compound alone” value [1, 4] was 3000 ms. For the same compound, the “washout τ, compound + Mg” value ([1]; −80 mV) was 60 ms and the “tail currents on coapplication” value ([1]; −80 mV) was “tail current absence”.
In the case of `N=C(N)/N=C(\N)N1CCOCC1` [Moroxydine, moroxydine], the “inhibition of NMDA receptor steady-state currents (in words)” value ([1]; −80 mV) is reported as “practically ineffective” and the “% of Inhibition (10 µM) −80 mV” value [1, 8] is reported as 5 ± 4 (n = 4) %.

From paper PMC11434645, “Mechanisms of NMDA Receptor Inhibition by Biguanide Compounds” (Pharmaceuticals, 2024)
